Laboratory results reported in US8097646B2, “Ophthalmic preparation containing menthyl ester of indomethacin” (AlphaRx, Inc., priority 2005, dated 2012).

Experiments:
[1] = cited from earlier work
[2] = Solubility of the substance in water and solvents; type: physicochemical
Procedure: MEI is a slightly yellow crystalline substance with a melting point of 86-90° C. […] The NMR, mass-spectrometry and FT-IR-spectrum results were: […]

[3] = Pharmacokinetics of MEI in rats after intraperitoneal administration (Example 11, FIG. 2); type: in vivo; settings: 20 mg/kg intraperitoneally, submicron emulsion (Example 6), Wistar rats
Procedure: FIG. 2 is a graph illustrating the pharmacokinetics of MEI in Wistar rats after intraperitoneal IP) administration (20 mg/kg, Example 6) as described in Example 11.

carrageenan paw edema = test: Carrageenan paw edema model (Example 12, FIG. 3); type: in vivo; settings: intraperitoneally administrated, rats n=4, 1% carrageenan into hind paw
Procedure: FIG. 3 is a graph illustrating the comparative anti-inflammatory activity of indomethacin and MEI in a carrageenan paw edema model (rats, n=4) as described in Example 12.
FIG. 3 represents the anti-inflammatory activity of MEI in a carrageenan model. Inflammation in rats (n=4) was caused by injection of 100 microliters of sterile 1% carrageenan solution into a hind paw, originating local edema development with maximum development at 3-4 hours after administration. The contaralateral paw was injected with 100 microliters of saline and used as control. Paw volumes were measured by plethysmometry, (Ugo Basil Plethysmometer, Italy) and the calculated difference in paw volumes indicated the severity of inflammation.

eye = test: Comparison of ocular irritation levels, one drop onto the eye of volunteers (Example 10); type: in vivo, healthy volunteers; settings: ophthalmic formulation comprising MEI, volunteers n=3
Procedure: The ocular irritation of MEI in an ophthalmic formulation as compared with an indomethacin-containing ophthalmic preparation has been tested in 3 healthy volunteers. One drop (40-50 mcl) of the tested formulations (0.25% of MEI (as per Example 5-9), 0.1% Indocollyre®, and sterile saline as the control) was placed onto the eye of each volunteer using an appropriate dropper. The interval between sample applications was at least 24 hours The comparative irritation for MEI, indomethacin and other NSAIDs (Indocollyre®) in ophthalmic formulations is set out in Table 4 (volunteers data, n=3): The irritation scale in the above table ranges from 0-10, with 0 corresponding to no burning or itching, and 10 corresponding to extremely severe burning or itching.

SMILES	pH above which the substance is unstable [1]	Solubility in alcohol, methylene chloride and chlorophorm, ethyl acetate, glycerides and other organic solvents ([2]; organic solvents)	Solubility in propylene glycol and polyethylene glycol (PEG)-400 ([2]; propylene glycol, PEG-400)	Solubility in water ([2]; water)	Level of the parent substance (MEI itself) [3]	Metabolism of MEI and release of indomethacin [3]	Anti-inflammatory activity (difference in paw volumes) (carrageenan paw edema)	Irritation compared with indomethacin in solution (eye)
COc1ccc2c(c1)c(CC(=O)O)c(C)n2C(=O)c1ccc(Cl)cc1 [Indomethacin, 1-(4-Chlorobenzoyl)-5-Methoxy-2-methyl-1H-indole-3-acetic acid]	greater than 6.0							
COc1ccc2c(c1)c(CC(=O)OC1CC(C)CCC1C(C)C)c(C)n2C(=O)c1ccc(Cl)cc1 (centres unmarked) [MEI, Menthyl ester of indomethacin]		freely soluble	poorly soluble	insoluble	decreases rapidly	rapidly metabolizes and releases indomethacin for a prolonged period	high level of anti-inflammatory activity	significantly lower irritation than indomethacin in solution
